A short description of this data set: Half-life data for 2-chloro-2-alkyl substituted peroxyesters (0.2M in Benzene). It counts as physicochemical. The settings on record: for Half-Life: 200000 µM. The text has this: The following Table III illustrates the desirable half lifes obtainable with compositions of this invention:
HALF-LIFE DATA FOR SELECTED 2-CHLORO-2-ALKYL
SUBSTITUTED PEROXYESTERS (0.2M in Benzene)

As to `CCCCC(Cl)(CC)C(=O)OOC(C)(C)C` (stereo not drawn) [TBPCEH, t-Butyl peroxy 2-chloro-2-ethyl hexanoate], the “10 Hr Half-Life Temp” value is 56.2 °C. This compound gave a Half-Life (55 °C.) of 11.55 h. Besides, the Half-Life (65 °C.) worked out at 3.72 h. Besides, the Half-Life (75 °C.) was found to be 1.16 h. Moreover, under “80 °C.”, the Half-Life was found to be 0.68 h.
Take `CCC(Cl)(CC)C(=O)OOC(C)(C)CC(C)(C)C` [TMBPCEB, 1,1,3,3 Tetramethylbutylperoxy-2-chloro-2-ethylbutyrate]: the Half-Life worked out at 23.22 h (47.5 °C.), 16.84 h (50 °C.), 9.00 h (55 °C.) and 2.38 h (65 °C.).

Source of the values: US4278612A, “2-Chloro-2-alkyl substituted peroxyesters” (priority 1979, dated 1981).
